The subject of assay [1] is remaining Gram positive organisms. As to the kind of experiment: MIC determination, zinc fusidate panel. The note with it: remaining Gram positive organisms of the panel. The class given is cell-based. The procedure:
(§1) MICs were determined for zinc fusidate prepared according to Example 3 using the following Gram positive and Gram negative panels:
(§2) 4 strains of Staphylococcus aureus (2 methicillin-resistant, 2 methicilllin-sensitive) and 2 strains each of coagulase-negative staphylococci, Staph. saprophyticus, Enterococci, Streptococcus pyogenes, Strept. agalactiae, Listeria monocytogenes, diphtheroids and Bacillus spp., 2 strains each of Escherichia coli, Klebsiella pneumoniae, Pseudomonas aeruginosa, Providencia stuartii, Proteus morganii, Salmonella typhimurium, Acinetobacter spp., Citrobacter freundii, Serratia marcescens and Enterobacter cloacae.

For assay [2], the system named is coagulase negative Staphylococci. Description: MIC determination, zinc fusidate panel. It counts as cell-based. Particulars: 2 strains. As for the experimental part:
as §1, §2

Assay [3] relates to Gram positive bacteria. As to the kind of experiment: MIC determination, zinc fusidate panel, overall assessment. The class given is cell-based. The procedure: as §1, §2
The test system of assay [4] is Gram negative bacteria. Description: In vitro assessment of Gram negative activity (MIC/MBC panel). It counts as cell-based. The procedure:
(§3) Minimum inhibitory concentrations (MIC), minimum bactericidal concentrations (MBC), rates of killing and the incidence of naturally occurring resistant mutants were determined for silver fusidate prepared according to Example 1. MICs were determined by the plate dilution method using IsoSensitest (IsoSensitest is a Trade Mark) media supplemented where necessary with 5% lysed horse blood. Two inocula were used, 10⁶ and 10⁴ cfu. MICs were read after overnight incubation in the appropriate atmosphere. The plates bearing the 10⁶ inocula were replicated using velvet pads for the determination of MBC which is defined as the lowest antibiotic concentration killing at least 99.9% of the original inoculum.
(§4) 20 strains of the following species were tested:
(§5) Gram negative: Escherichia coli, Enterobacter spp., Klebsiella pneumoniae, Acinetobacter spp., Pseudomonas aeruginosa, Providencia stuartii, Proteus mirabilis, indole-positive Proteae (10 each of Prov. rettgeri and Pr. vulgaris).

Assay [5] deals with MRSA. As to the kind of experiment: MIC / MBC, plate dilution method (MBC by replica plating with velvet pads). The class given is cell-based, methicillin-resistant Staph. aureus (MRSA). The note with it: inoculum of 10⁶ org/ml, 20 strains. The procedure:
as §3, §4
(§6) Gram positive: methicillin-resistant Staph. aureus (MRSA), methicillin-sensitive Staph. aureus (MSSA), methicillin-resistant Staph. epidermidis (MRSE), Enterocci, Streptococcus pyogenes, Candida albicans, Clostridium spp.

In assay [6] the test system is Pseudomas sp. Described as above. It counts as cell-based, Pseudomonas aeruginosa. As for the experimental part:
as §3, §4, §5

The subject of assay [7] is various strains of Staphylococcus. As to the kind of experiment: Incidence of naturally occurring resistant mutants. Particulars: absence of growth in the presence of 100 µg/ml. The class given is cell-based. The procedure: as §3
The test system of assay [8] is Gram positive and Gram negative bacteria and Candida albicans. Description: In vitro assessment of spectrum of activity (MIC/MBC panel). The class given is cell-based. The note with it: compared to sodium fusidate and silver sulphadiazine. As for the experimental part:
as §3, §4, §6, §5

Assay [9] has as its system one particular strain of Staphyloccus. Description: Rates of killing. Particulars: non-growing state compared with growing state. The class given is cell-based. The procedure:
as §3
This is a very interesting observation because it is known that certain strains of Staphylococcus colonize, e.g., the nose, creating in the host a carrier state. Carrier state hosts are a constant source of potential infection both for themselves and those they come in contact with. This is a particularly troublesome source of infections in the hospital environment. It is recognized that the cheapest and most efficient way off removing this problem from a hospital is to remove or discharge the carrier. […]

For zinc fusidate, the MIC range in [1] is below 1 to 10 µg/mL; in assay [2], 10 to 100 µg/mL. Besides, in [3], the “activity against Gram positive bacteria” value is recorded as “demonstrates activity”.
Consider `CC(=O)O[C@H]1C[C@@]2(C)[C@@H](C[C@@H](O)[C@H]3[C@@]4(C)CC[C@@H](O)[C@@H](C)[C@@H]4CC[C@@]32C)/C1=C(\CCC=C(C)C)C(=O)O` [sodium fusidate], for which, in assay [4], the Gram negative activity entry is “total lack of Gram negative activity”.
Compound “silver salt of N¹-(pyrimidin-2-yl) sulphanilamide [silver sulphadiazine, reference compound]” returned an MBC range in assay [5] (lowest concentration killing at least 99.9% of the original inoculum) of 128 to 256 µg/mL.
In [6], silver fusidate came in with an MBC range of 32 to 64 µg/mL and an MIC range of 32 to 64 µg/mL. Besides, the “incidence of silver fusidate resistant mutants” value in assay [7] is “too low to be measured”. The spectrum of activity entry in assay [8] is given as “broad spectrum of activity”. In [5], the MIC range was 0.13 to 64 µg/mL. In assay [9], the rate of killing result was “killed more rapidly in a non-growing state”.
